Laboratory results as given in article PMC11874007, “Switching Roles—Exploring Concentration-Dependent Agonistic versus Antagonistic Behavior of Integrin Ligands” (Journal of Medicinal Chemistry, 2025).

Key:
Assay type in all cases: cell-based
α5β1+ OV-MZ-6 cells = test: Wound scratch cell migration assay, OV-MZ-6 cells; conditions: for Effect on wound gap closure / cell migration: OV-MZ-6 cells
Experimental: (§1) As a biological readout for integrin signaling, we analyzed ligand effects on cell adhesion and migration by wound scratch assays (Figure 10A,B). […] Microscopical images were taken directly after wounding the cell monolayers and then after 9, 24, 48, and 72 h, respectively.
(§2) Figure 10 (A) Effect of integrin ligands on cancer cell migration. […] Microscopical measurements of wound gaps were taken directly after setting the wound scratch and then after 9, 24, 48, and 72 h, respectively. Wound scratch assays were repeated at least three times. The extent of wound gap closure [%]/cell coverage was calculated by a python script utilizing Canny’s Edge Detection algorithm as described under Materials and summarized in the corresponding histograms (see also Scheme S5 in the Supporting Information). (B) Adhesion of M21, OV-MZ-6, and HN cells in the presence of the respective integrin targeting ligand at low (1 nM) and high (1 μM) concentrations. […] Depicted are typical microscopical images of the respective cell monolayers.
(§3) The assays were performed according to a modified protocol as previously published.[94] Cells were cultivated on fibronectin-coated 12-well cell culture plates until cell monolayers reached an approximately 80% confluency. Then, the wound scratch was set utilizing a 200 μL pipet tip. Subsequently, fresh culture medium was added in the absence or presence of L1–L5 (concentration: 1 μM or 1 nM), and microscopical images (Zeiss, Oberkochen, Germany) were taken at two identical positions of the wound gap directly after wounding and then at 9, 24, 48, or 72 h of further cell cultivation. Each wound scratch assay was repeated three times. A custom python script was implemented to analyze wound gap closure over time: after cropping the images, we used the OpenCV[95] implementation of Canny’s Edge Detection Algorithm[96] to ensure reliable measurements even with variable lighting conditions.[97] As a first step, a 5 × 5 Gaussian filter was applied to remove background noise. The smoothened images were then filtered by a Sobel kernel[98] and the magnitude and direction of the intensity gradient of the images calculated. Then, a non-maximum suppression algorithm was applied to identify relevant pixels that presumably contribute to edges. In a final step, threshold hysteresis was utilized to distinguish true edges from variations in intensity or the remaining background noise. The resulting images were then segmented and binarized by use of a grid filter and analyzed with respect to cell-covered area relative to the start image of each series.
Scheme S5. Effect of integrin ligands on cancer cell migration (control cells to Fig. 10A in the main manuscript). a) Integrin αvβ3- OV-MZ-6 cells, α5β1- M21 cells, α5β1+ and αvβ3- and […]
mages of wound gaps were taken directly after setting the wound scratch and then after […], respectively. Wound scratch assays were repeated at least 3 times. The extent of wound gap closure [%]/cell coverage was calculated by a python script utilizing Canny’s Edge Detection algorithm11 as described in the Experimental Section and summarized in the corresponding histograms.
(1 picture or pasted object on this page, not shown here)

[1] = tested on: FAK, p-FAK, p44/42erk-1/2, p-p44/42erk-1/2 in α5β1+ OV-MZ-6 cells; test: Western blot of FAK and p44/42erk-1/2 expression and activation, OV-MZ-6 cells; conditions: for p-FAK, transient elevation, n-fold of untreated cells: concentration not specified
Experimental: Since agonistic ligand performance requires integrin activation and signaling, by Western blot analysis, we studied whether the different ligands alter the expression levels and activation states of FAK and p44/42^(erk-1/2). For this, the respective target integrin-expressing tumor cell types were incubated with the corresponding subtype-selective ligand at a concentration of 1 μM for 24 h (Figure 8). […] Signal intensities of FAK and p44/42^(erk-1/2) expression and activation (p-FAK and p-p44/42^(erk-1/2)) on Western blots were evaluated by densitometry. Data are depicted as GAPDH-normalized fluorescence signal intensities as n-fold, by setting values obtained for the respective untreated cells to “1”. […] MAPK p44/42^(erk-1/2) expression was approximately 2.2-fold augmented, p44/42^(erk-1/2) by approximately 2.5-fold. It also raised activation of p-FAK and p-p44/42^(erk-1/2) by approximately 2.2-fold and 3.1-fold, respectively, in α5β1+ OV-MZ-6 cells. […] Additionally, it raised FAK (approximately 1.7-fold) and p-p44/42^(erk-1/2) (approximately 2.4-fold) in α5β1+ OV-MZ-6 cells.
Figure 8 Effects of ligands on cellular expression and activation of integrin-related signaling molecules FAK and p44/42^(erk-1/2). […] Signal intensities for FAK and p-FAK, respectively, were evaluated by use of the Bio-Rad Imager Gel Doc XR+ and a ChemiDoc XRS+ Systems and the software Image Lab. Shown are typical representative Western blot images and the corresponding histograms depicting GAPDH-normalized signal intensities as n-fold by setting the values obtained for untreated cells to “1” (drawn as black line). For each cell line, cutouts of identical gels are depicted.
In order to capture early and transient changes in signaling activation following ligand treatment, we next reduced the observation periods to 5, 30, or 60 min and assessed FAK expression and activation. […] Depicted are typical Western blot images and the corresponding densitometrical evaluations of GAPDH-normalized signal intensities as n-fold, by setting that of the respective untreated cell type to “1” (Figure 9). […]
The kinases (p-)p44/42^(erk-1/2) and (p-)FAK were detected as previously published.[15],[8] Briefly, cells were grown for 18 h on six-well plates in DMEM (0.45 Mio cells/well). After medium exchange, fresh medium with L1–L5 (concentration: 1.0 μM, 2 mL/well) was added, and cells were incubated for another 24 h at 37 °C. In a second series, cells were incubated with L1–L5 (1 μM or 1 nM) for 5, 30, or 60 min. Thereafter, the cellular proteins were extracted and processed by Western blotting. Proteins were visualized using the Pierce ECL chemiluminescent substrate (Thermo Fisher Scientific). Band signal intensities for (p-)p44/42^(erk-1/2) and (p-)FAK were evaluated using the Bio-Rad Imager Gel Doc XR + and ChemiDoc XRS + Systems and the software Image Lab. Differences in protein loading and blotting efficiency were normalized by reprobing the membranes with a monoclonal antibody directed to GAPDH. Signal intensities for protein bands of interest were normalized to those recorded for GAPDH. Typical Western blot images are depicted together with histograms summarizing the mean values of normalized fluorescence signal intensities as n-fold, by setting those obtained for untreated cells to “1”.

αvβ3+ M21 cells = test: Wound scratch cell migration assay, M21 cells
Experimental: as §1, §2, §3

[2] = concentration not specified or both, within 60 min

Molecule: C#CCCC(=O)NCCCOc1ccc(C(=O)N[C@H](CC(=O)O)Cc2ccc(OCCCNc3cc(OC)ccn3)cc2)cc1 [L1, (S)-4-(4-(3-((4-Methoxypyridin-2-yl)amino)propoxy)phenyl)-3-(4-(3-(pent-4-ynamido)propoxy)benzamido)butanoic Acid]
- Effect on wound gap closure / cell migration (α5β1+ OV-MZ-6 cells; 1 nM): not observed
- Effect on wound gap closure / cell migration (α5β1+ OV-MZ-6 cells; 1 μM): more efficient blockade of cell migration than in M21 cells
- FAK, n-fold of untreated cells ([1]; 1 μM, 24 h, GAPDH-normalized): approximately 1.7 fold
- p-p44/42erk-1/2, n-fold of untreated cells ([1]; 1 μM, 24 h, GAPDH-normalized): approximately 2.4 fold
- FAK expression versus untreated cells [1, 2]: transient slight increase
- p-FAK, transient elevation, n-fold of untreated cells ([1]; within 60 min): approximately twofold
- Effect on wound gap closure / cell migration (αvβ3+ M21 cells; 1 nM): enhanced wound gap closure
- Effect on wound gap closure / cell migration (αvβ3+ M21 cells; 1 μM): less effective than cilengitide (L2) in blocking cell migration
- Cell coverage (wound gap closure) (αvβ3+ M21 cells; 1 μM, within 72 h): approximately 80%

Molecule: C#CCCC(=O)NCCCOc1cc(C)c(C(=O)N[C@@H](CNC(=O)CNC(=O)c2cccc(NC(=N)N)c2)C(=O)O)c(C)c1 [L5, (S)-2-(2,6-Dimethyl-4-(3-(pent-4-ynamido)propoxy)benzamido)-3-(2-(3-guanidinobenzamido)acetamido)propanoic Acid]
- Effect on wound gap closure / cell migration (α5β1+ OV-MZ-6 cells; 1 nM): did not alter their migratory capacity
- Effect on wound gap closure / cell migration (α5β1+ OV-MZ-6 cells; 1 μM): blocked migration
- FAK levels, n-fold of untreated cells ([1]; 1 nM, 5, 30 or 60 min): approximately 1.6 fold
- p-FAK, highest or initial elevation, n-fold of untreated cells ([1]; 1 nM, 5, 30 or 60 min): approximately threefold
- p-FAK, highest induction at 30 min, n-fold of untreated cells ([1]; 1 μM): approximately fourfold
- FAK expression versus untreated cells ([1]; 1 μM, 5, 30 or 60 min): equal to or only slightly higher than that in untreated cells
- (p-)FAK and (p-)p-44/42erk-1/2 ([1]; 1 μM, 24 h): did not modulate
- Effect on wound gap closure / cell migration (αvβ3+ M21 cells; 1 nM): did not alter their migratory capacity
- Effect on wound gap closure / cell migration (αvβ3+ M21 cells; 1 μM): no abrogation of cell migration was observed

Molecule: c(FRGDLAFp(NMe)K) [L3]
- Effect on wound gap closure (α5β1+ OV-MZ-6 cells; αvβ6- OV-MZ-6 cells, concentration not specified): delayed wound gap closure
- FAK expression versus untreated cells [1, 2]: no effect
- p-FAK, transient elevation, n-fold of untreated cells ([1]; within 60 min): approximately 2.9 fold
